From patent publication US7998979B2, “Antibacterial quinoline derivatives” (Janssen Pharmaceutical N.V., priority 2006, dated 2011)
≈ marks a conversion by molar mass, not a printed value.

Tests used:
[1] = system: Streptococcus pneumoniae (ATCC6305); assay: IC90 determination, microtitre plate assay, SPN 6305; assay type: cell-based; settings: 90% inhibitory concentration for bacterial growth, 37° C.; for IC90: Streptococcus pneumoniae, ATCC6305, 24 h, read-out: IC90 (μg/ml) SPN 6305; for IC90 (μg/ml) SPN 6305: 24 hours
Description: (§1) D.3. In-Vitro Method for Testing Compounds for Anti-Bacterial Activity Against Various Non-Mycobacterial Strains
(§2) Preparation of Bacterial Suspensions for Susceptibility Testing:
(§3) The bacteria used in this study were grown overnight in flasks containing 100 ml Mueller-Hinton Broth (Becton Dickinson—cat. no. 275730) in sterile de-ionized water, with shaking, at 37° C. Stocks (0.5 ml/tube) were stored at −70° C. until use. Bacteria titrations were performed in microtiter plates to detect the TCID50, in which the TCID50 represents the dilution that gives rise to bacterial growth in 50% of inoculated cultures.
(§4) In general, an inoculum level of approximately 100 TCID50 was used for susceptibility testing.
(§5) Anti Bacterial Susceptibility Testing: IC90 Determination
(§6) Flat-bottom, sterile 96-well plastic microtiter plates were filled with 180 μl of sterile deionized water, supplemented with 0.25% BSA. Subsequently, stock solutions (7.8×final test concentration) of compounds were added in 45 μl volumes in column 2 Serial five-fold dilutions (45 μl in 180 μl) were made directly in the microtiter plates from column 2 to reach column 11. Untreated control samples with (column 1) and without (column 12) inoculum were included in each microtiter plate. Depending on the bacteria type, approximately 10 to 60 CFU per well of bacteria inoculum (100 TCID50), in a volume of 100 μl in 2.8×Mueller-Hinton broth medium, was added to the rows A to H, except column 12. The same volume of broth medium without inoculum was added to column 12 in row A to H. The cultures were incubated at 37° C. for 24 hours under a normal atmosphere (incubator with open air valve and continuous ventilation). At the end of incubation, one day after inoculation, the bacterial growth was quantitated fluorometrically. Therefore resazurin (0.6 mg/ml) was added in a volume of 20 μl to all wells 3 hours after inoculation, and the plates were re-incubated overnight. A change in colour from blue to pink indicated the growth of bacteria. The fluorescence was read in a computer-controlled fluorometer (Cytofluor Biosearch) at an excitation wavelength of 530 nm and an emission wavelength of 590 nm. The % growth inhibition achieved by the compounds was calculated according to standard methods.

[2] = system: M. Smegmatis (ATCC607); assay: In-vitro anti-bacterial activity against strain M. Smegmatis ATCC607; assay type: cell-based; settings: 90% inhibitory concentration for bacterial growth, 37° C.; for IC90 (μg/ml) MSM 607: 48 hours; for IC90: Mycolicibacterium smegmatis, ATCC607, 48 h, read-out: IC90 (μg/ml) MSM 607
Description: D.2. In-Vitro Method for Testing Compounds for Anti-Bacterial Activity Against Strain M. Smegmatis ATCC607
Flat-bottom, sterile 96-well plastic microtiter plates were filled with 180 μl of sterile deionized water, supplemented with 0.25% BSA. Subsequently, stock solutions (7.8×final test concentration) of compounds were added in 45 μl volumes to a series of duplicate wells in column 2 so as to allow evaluation of their effects on bacterial growth. Serial five-fold dilutions (45 μl in 180 μl) were made directly in the microtiter plates from column 2 to 11 using a customised robot system (Zymark Corp., Hopkinton, Mass.). Pipette tips were changed after every 3 dilutions to minimize pipetting errors with high hydrophobic compounds. Untreated control samples with (column 1) and without (column 12) inoculum were included in each microtiter plate. Approximately 250 CFU per well of bacteria inoculum, in a volume of 100 μl in 2.8×Mueller-Hinton broth medium, was added to the rows A to H, except column 12. The same volume of broth medium without inoculum was added to column 12 in row A to H. The cultures were incubated at 37° C. for 48 hours in a humidified 5% CO2 atmosphere (incubator with open air valve and continuous ventilation). At the end of incubation, two days after inoculation, the bacterial growth was quantitated fluorometrically. Therefore Alamar Blue (10×) was added to all wells in a volume of 20 μl and plates were incubated for another 2 hours at […]
The fluorescence was read in a computer-controlled fluorometer (Cytofluor, Biosearch) at an excitation wavelength of 530 nm and an emission wavelength of 590 nm (gain 30).

[3] = system: Pseudomonas aeruginosa (ATCC27853); assay: IC90 determination, microtitre plate assay, PAE 27853; assay type: cell-based; settings: 90% inhibitory concentration for bacterial growth, 24 hours, 37° C., read-out: IC90 (μg/ml) PAE 27853
Description: as §1, §2, §3, §4, §5
(§7) Flat-bottom, sterile 96-well plastic microtiter plates were filled with 180 μl of sterile deionized water, supplemented with 0.25% BSA. […] At the end of incubation, one day after inoculation, the bacterial growth was quantitated fluorometrically. […] The fluorescence was read in a computer-controlled fluorometer (Cytofluor Biosearch) at an excitation wavelength of 530 nm and an emission wavelength of 590 nm. The % growth inhibition achieved by the compounds was calculated according to standard methods.

[4] = system: Enterococcus faecalis (ATCC29212); assay: IC90 determination, microtitre plate assay, EFA 29212; assay type: cell-based; settings: 90% inhibitory concentration for bacterial growth, 24 hours, 37° C., read-out: IC90 (μg/ml) EFA 29212
Description: as §1, §2, §3, §4, §5, §7

[5] = system: Staphylococcus aureus (ATCC29213); assay: IC90 determination, microtitre plate assay, STA 29213; assay type: cell-based; settings: 90% inhibitory concentration for bacterial growth, 37° C.; for IC90 (μg/ml) STA B29213: 24 hours; for IC90: Staphylococcus aureus, ATCC29213, 24 h, read-out: IC90 (μg/ml) STA B29213
Description: as §1, §2, §3, §4, §5, §6

[6] = system: Streptococcus pyogens (ATCC8668); assay: IC90 determination, microtitre plate assay, SPY 8668; assay type: cell-based; settings: 90% inhibitory concentration for bacterial growth, 24 hours, 37° C., read-out: IC90 (μg/ml) SPY 8668
Description: as §1, §2, §3, §4, §5, §7

[7] = system: Escherichia coli (ATCC35218); assay: IC90 determination, microtitre plate assay, ECO 35218; assay type: cell-based; settings: 90% inhibitory concentration for bacterial growth, 24 hours, 37° C., read-out: IC90 (μg/ml) ECO 35218
Description: as §1, §2, §3, §4, §5, §7

[8] = system: methicilline resistant Staphylococcus aureus (MRSA) (a clinical isolate from the University of Antwerp); assay: IC90 determination, microtitre plate assay, STA RMETH; assay type: cell-based; settings: 90% inhibitory concentration for bacterial growth, 37° C.; for IC90: Staphylococcus aureus, MRSA, 24 h, read-out: IC90 (μg/ml) STA RMETHIC
Description: as §1, §2, §3, §4, §5
as §6, with “Therefore resazurin (0.6 mg/ml) was added in a volume of 20 μl to all wells 3 hours after inoculation, and the plates were re-incubated overnight. A change in colour from blue to pink indicated the growth of bacteria.” left out

| Structure (SMILES) | melting point [°C] | IC90 (μg/ml) STA B29213 [5] [µg/mL] | IC90 (μg/ml) SPN 6305 [1] [µg/mL] | IC90 [5] [µg/mL] | IC90 (μg/ml) MSM 607 [2] [µg/mL] | IC90 [2] [µg/mL] | also measured |
| --- | --- | --- | --- | --- | --- | --- | --- |
| COc1nc2ccc(Br)cc2cc1C(c1ccccc1)C(O)(CSCCCN(C)C)c1ccccc1 (single isomer, unassigned) [Compound 3] | – | 6.35 (≈ 11.2 µM) | 2.01 (≈ 3.55 µM) | – | 1.79 (≈ 3.16 µM) | – | IC90 [3]: 11.3 µg/mL (≈ 19.9 µM); IC90 [4]: 11.3 µg/mL (≈ 19.9 µM); IC90 [8]: 11.3 µg/mL (≈ 19.9 µM); IC90 [6]: 7.99 µg/mL (≈ 14.1 µM); IC90 [7]: 14.2 µg/mL (≈ 25.1 µM) |
| CCN(CC)CCSCC(O)(c1ccccc1)C(c1ccccc1)c1cc2cc(Br)ccc2nc1OC (single isomer, unassigned) [Compound 5] | – | – | 2.31 (≈ 3.99 µM) | 58 (≈ 100 µM) | 2.06 (≈ 3.55 µM) | – | – |
| CCN(CC)CCSCC(O)(c1ccccc1)C(c1ccccc1)c1cc2cc(Br)ccc2nc1OC (single isomer, unassigned) [Compound 6] | 148 | 51.66 (≈ 89.1 µM) | 23.07 (≈ 39.8 µM) | – | 10.31 (≈ 17.8 µM) | – | – |
| CCN(CC)CCCSCC(O)(c1ccccc1)C(c1ccccc1)c1cc2cc(Br)ccc2nc1OC (single isomer, unassigned) [Compound 7] | 104 | 9.41 (≈ 15.9 µM) | 2.65 (≈ 4.46 µM) | – | 1.88 (≈ 3.17 µM) | – | – |
| CCN(CC)CCCSCC(O)(c1ccccc1)C(c1ccccc1)c1cc2cc(Br)ccc2nc1OC (single isomer, unassigned) [Compound 8] | – | 1.88 (≈ 3.17 µM) | – | – | – | 1.88 (≈ 3.17 µM) | IC90 [1]: 2.36 µg/mL (≈ 3.98 µM) |
| COc1nc2ccc(Br)cc2cc1C(c1ccccc1)C(O)(CSCCCN1CCCCC1)c1ccccc1 (single isomer, unassigned) [Compound 9] | 158 | 60.56 (≈ 100 µM) | 60.56 (≈ 100 µM) | – | 48.11 (≈ 79.4 µM) | – | – |
| COc1nc2ccc(Br)cc2cc1C(c1ccccc1)C(O)(CSCCCN1CCCCC1)c1ccccc1 (single isomer, unassigned) [Compound 10] | – | 4.81 (≈ 7.94 µM) | 2.15 (≈ 3.55 µM) | – | 1.92 (≈ 3.17 µM) | – | – |
| COc1nc2ccc(Br)cc2cc1C(c1ccccc1)C(O)(CSCCCN1CCN(C)CC1)c1ccccc1 (single isomer, unassigned) [Compound 11] | 136 | 4.93 (≈ 7.94 µM) | 1.96 (≈ 3.16 µM) | – | 1.96 (≈ 3.16 µM) | – | IC90 (μg/ml) STA RMETHIC ([8]; 24 hours): 12.38 µg/mL (≈ 19.9 µM) |
| COc1nc2ccc(Br)cc2cc1C(c1ccccc1)C(O)(CSCCCN1CCN(C)CC1)c1ccccc1 (single isomer, unassigned) [Compound 12] | – | – | – | 4.39 (≈ 7.07 µM) | – | 2.2 (≈ 3.54 µM) | IC90 [1]: 2.2 µg/mL (≈ 3.54 µM); IC90 [8]: 13.9 µg/mL (≈ 22.4 µM) |

Second part, led by results:

| melting point [°C] | IC90 (μg/ml) STA B29213 [5] [µg/mL] | IC90 (μg/ml) SPN 6305 [1] [µg/mL] | IC90 [5] [µg/mL] | Structure (SMILES) | IC90 (μg/ml) MSM 607 [2] [µg/mL] | IC90 [2] [µg/mL] | also measured |
| --- | --- | --- | --- | --- | --- | --- | --- |
| 175 | 8.74 (≈ 15.8 µM) | – | – | COc1nc2ccc(Br)cc2cc1C(c1ccccc1)C(O)(CSCCN(C)C)c1ccccc1 (single isomer, unassigned) [Compound 1] | 6.94 (≈ 12.6 µM) | – | IC90 [1]: 4.92 µg/mL (≈ 8.92 µM); IC90 [3]: 22 µg/mL (≈ 39.8 µM); IC90 [4]: 19.6 µg/mL (≈ 35.5 µM); IC90 [6]: 49.2 µg/mL (≈ 89.1 µM); IC90 [7]: 55.2 µg/mL (≈ 100 µM) |
| – | 21.96 (≈ 39.8 µM) | 8.74 (≈ 15.8 µM) | – | COc1nc2ccc(Br)cc2cc1C(c1ccccc1)C(O)(CSCCN(C)C)c1ccccc1 (single isomer, unassigned) [Compound 2] | 2.46 (≈ 4.46 µM) | – | – |
| 136 | – | 10.06 (≈ 17.8 µM) | 7.99 (≈ 14.1 µM) | COc1nc2ccc(Br)cc2cc1C(c1ccccc1)C(O)(CSCCCN(C)C)c1ccccc1 (single isomer, unassigned) [Compound 4] | – | 2.01 (≈ 3.55 µM) | – |
| 128 | – | – | 43.6 (≈ 79.4 µM) | COc1nc2ccc(Br)cc2cc1C(c1ccccc1)C(O)(CN(C)CCN(C)C)c1ccccc1 (single isomer, unassigned) [Compound 13] | – | 8.69 (≈ 15.8 µM) | – |
| – | 54.85 (≈ 100 µM) | – | – | COc1nc2ccc(Br)cc2cc1C(c1ccccc1)C(O)(CN(C)CCN(C)C)c1ccccc1 (single isomer, unassigned) [Compound 14] | 8.69 (≈ 15.8 µM) | – | – |
| – | 62.46 (≈ 100 µM) | 62.46 (≈ 100 µM) | – | COc1nc2ccc(Br)cc2cc1C(c1ccccc1)C(O)(CN(CCN(C)C)Cc1ccccc1)c1ccccc1 (stereo not shown) [Compound 15] | 62.46 (≈ 100 µM) | – | – |
| – | – | – | 62.5 (≈ 100 µM) | COc1nc2ccc(Br)cc2cc1C(c1ccccc1)C(O)(CN(CCN(C)C)Cc1ccccc1)c1ccccc1 (stereo not shown) [Compound 16] | – | 55.7 (≈ 89.1 µM) | IC90 [1]: 62.5 µg/mL (≈ 100 µM) |
